The source of these data is US20070274951A1, “Combinations comprising HCV protease inhibitor(s) and HCV polymerase inhibitor(s), and methods of treatment related thereto” (priority 2006, published 2007).

Where two headings read alike, the source gives them in different places.

This test relates to HCV replicon RNA in replicon cells. Description: Replicon RNA response to antiviral agent(s), real time PCR (Taqman assay). Conditions: Hepatitis C virus, read-out: Inhibitor IC50 in replicon cells. The test is classed as cell-based. The procedure: Replicon RNA response to antiviral agent(s) was examined using the HCV protease inhibitor Formula Ia alone or in combination with HCV NS5B polymerase inhibitors 2′-methyl-adenosine, benzothiadiazine, indole-N-acetamide, or NM 107. Likewise, replicon RNA response to antiviral agent(s) was examined using the HCV protease inhibitor SCH 446211 (SCH 6) alone or in combination with HCV polymerase inhibitor ribavirin.
In brief, replicon cells were seeded at 4000 cells/well in 96-well collagen 1-coated Biocoat plates (Becton Dickinson). At 24 hrs post-seeding, replicon cells were treated with the requisite anti-viral agent(s). The final concentration of DMSO was 0.5%, fetal bovine serum was 5%, and G418 (an aminoglycoside used as a selective agent) was 500 μg/ml. Media and anti-viral agent(s) were refreshed daily for 3 days, at which point the cells were washed with PBS and lysed in 1× cell lysis buffer (Ambion cat #8721). The replicon RNA level was measured using real time PCR (Taqman assay). The ampicon was located in NS5B. […] (SEQ ID NO: 2); the probe sequence was FAM-labeled […] (SEQ ID NO: 3). GAPDH RNA was used as endogenous control and was amplified in the same reaction as NS5B (multiplex PCR) using primers and VIC-labeled probe recommended by the manufacture (PE Applied Biosystem). The real-time RT-PCR reactions were run on ABI PRISM 7900HT Sequence Detection System using the following program: 48° C. for 30 min, 95° C. for 10 min, 40 cycles of 95° C. for 15 sec, 60° C. for 1 min. The ΔCT values (CT5B−CTGAPDH) were plotted against drug concentration and fitted to the sigmoid dose response model using SAS (SAS Institute Inc.) or Graphpad PRISM software (Graphpad Software Inc.). The IC50 is the drug dose necessary to achieve ΔCT=1 over the projected baseline. […] Alternatively, to quantitate the absolute amount replicon RNA, a standard curve was established by including serially diluted T7 transcripts of replicon RNA in the Taqman assay. All Taqman reagents were from PE Applied Biosystem. […]
(In general: A replicon is a self-replicating genome or part of one, used to study replication in cells.)

Turning to `CC(C)(C)NC(=O)N[C@H](C(=O)N1CC2C([C@H]1C(=O)NC(CC1CCC1)C(=O)C(N)=O)C2(C)C)C(C)(C)C` (stereo partly drawn) [Formula Ia], the IC50 runs as follows: (cells selected by: Formula Ia + 2′-methyl-adenosine) 3500 nM; (cells selected by: Formula Ia + Indole-N-acetamide) 2400 nM; (cells selected by: No treatment) 300 nM.

For orientation: IC50 means the concentration that gives 50% inhibition.
